According to publication PMC6199744, “Development of Chemical Proteomics for the Folateome and Analysis of the Kinetoplastid Folateome” (ACS Infectious Diseases, 2018):
Values joined by “and” are separate entries in the source; they are usually repeats but may differ in a detail not shown here. Equal entries are not always repeated. Where two headings read alike, the source gives them in different places.

Tested on: T. brucei lysate proteins
Assay type: binding, Trypanosoma brucei

Compound: CCCCCCOc1ccc(Cc2cnc(N)nc2N)cc1 [compound 1]
- fold change - vehicle control: 0.84 and 0.54 and 0.72 and 0.9 and 0.79
- fold change - vehicle control (protein RHS6A (CZT00028360.1)): 0.94
- fold change - vehicle control (protein TB09.160.1250 HY[…], CONSERVED): 0.85
- fold change - vehicle control (protein TB09.160.3670 RIBOSOMAL PROTEIN S6, PUTATIVE): 0.92
- fold change - vehicle control (protein TB09.211.2630 60S RIBOSOMAL PROTEIN L23, PUTATIVE): 1
- fold change - vehicle control (protein TB09.211.4513 KIN[…] PROTEIN KMP-11): 0.73
- fold change - vehicle control (protein TB11.V4.0005 RIBONUCLEOSIDE-DIPHOSPHATE REDUCTASE SMALL CHAIN): 0.92
- fold change - vehicle control (protein TB11.01.0870 R[…] A, 51KDA SUBUNIT, PUTATIVE): 0.98
- fold change - vehicle control (protein TB11.01.2560 40S RIBOSOMAL PROTEIN SA, PUTATIVE): 1.02
- fold change - vehicle control (protein TB11.01.4880 HY[…], CONSERVED): 0.77
- fold change - vehicle control (protein TB11.01.7090 HY[…], CONSERVED): 0.93
- fold change - vehicle control (protein TB11.02.2510 GUANINE NUCLEOTIDE-BINDING BETA SUBUNIT-LIKE PROTEIN): 0.93
- fold change - vehicle control (protein TB11.02.4170 40S RIBOSOMAL PROTEIN S5, PUTATIVE): 1.3
- fold change - vehicle control (protein TB11.03.0250 C[…]): 1.42
- fold change - vehicle control (protein TB11.46.0009 HY[…], CONSERVED): 0.95
- fold change - vehicle control (protein TB427TMP.01.1475 40S RIBOSOMAL PROTEIN S27, PUTATIVE): 0.92
- fold change - vehicle control (protein TB427TMP.01.4280 HY[…], CONSERVED): 1.08
- fold change - vehicle control (protein TB427TMP.01.4650 HY[…], CONSERVED): 0.58
- fold change - vehicle control (protein TB427TMP.01.4810 HY[…], CONSERVED): 0.83
- fold change - vehicle control (protein TB427TMP.01.5680 HY[…], CONSERVED): 0.33
- fold change - vehicle control (protein TB427TMP.01.8390 HY[…], CONSERVED): 0.87
- fold change - vehicle control (protein TB427TMP.02.0230 HY[…], CONSERVED): 1.01
- fold change - vehicle control (protein TB427TMP.02.0460 NUCLEOPORIN): 0.92
- fold change - vehicle control (protein TB427TMP.02.1106 NUCLEOBASE/NUCLEOSIDE TRANSPORTER 8 1): 1.06
- fold change - vehicle control (protein TB427TMP.160.2050 ENDO-BETA-N-ACETYLGLUCOSAMINIDASE, PUTATIVE): 0.79
- fold change - vehicle control (protein TB427TMP.160.4310 GLUTAMATE DEHYDROGENASE): 1.16
- fold change - vehicle control (protein TB427TMP.160.4450 40S RIBOSOMAL PROTEIN S3, PUTATIVE): 1
- fold change - vehicle control (protein TB427TMP.160.4630 HY[…], CONSERVED): 0.8
- fold change - vehicle control (protein TB427TMP.160.5200 HY[…], CONSERVED): 0.67
- fold change - vehicle control (protein TB427TMP.160.5670 HY[…], CONSERVED): 0.21
- fold change - vehicle control (protein TB427TMP.211.0930 POLYADENYLATE-BINDING PROTEIN 1): 1.23
- fold change - vehicle control (protein TB427TMP.211.1750 MIT[…] PROTEIN, PUTATIVE): 0.86
- fold change - vehicle control (protein TB427TMP.211.3510 ATP-DEPENDENT DEAD/H RNA HELICASE, PUTATIVE): 0.97
- fold change - vehicle control (protein TB427TMP.211.4540 RNA-BINDING PROTEIN, PUTATIVE): 0.71
- fold change - vehicle control (protein TB427TMP.244.2840 HY[…], CONSERVED): 0.64
- fold change - vehicle control (protein TB427.01.1240 CYTIDINE TR[…], PUTATIVE): 0.67
- fold change - vehicle control (protein TB427.01.2570 COATOMER BETA SUBUNIT): 0.88
- fold change - vehicle control (protein TB427.01.3910 HY[…], CONSERVED): 0.83
- fold change - vehicle control (protein TB427.02.6240): 0.95
- fold change - vehicle control (protein TB427.04.3350 HY[…], CONSERVED): 1.02
- fold change - vehicle control (protein TB427.04.3890 ATP-DEPENDENT RNA HELICASE, PUTATIVE): 0.9
- fold change - vehicle control (protein TB427.04.4870 AMINO ACID TRANSPORTER, PUTATIVE): 0.86
- fold change - vehicle control (protein TB427.04.750 50S RIBOSOMAL PROTEIN L7AE, PUTATIVE): 0.67
- fold change - vehicle control (protein TB427.04.960 HY[…], CONSERVED): 0.68
- fold change - vehicle control (protein TB427.05.1780 HY[…], CONSERVED): 0.66
- fold change - vehicle control (protein TB427.05.3030 INTR[…] PROTEIN IFT122, PUTATIVE): 0.78
- fold change - vehicle control (protein TB427.05.4560 GUANINE DEAMINASE, PUTATIVE): 1.07
- fold change - vehicle control (protein TB427.06.2150 CELL DIVISION CYCLE PROTEIN 16, PUTATIVE): 0.92
- fold change - vehicle control (protein TB427.06.3110 PROTEIN KINASE, PUTATIVE (CRK11)): 1.03
- fold change - vehicle control (protein TB427.06.5110 DAMAGE-SPECIFIC DNA BINDING PROTEIN, PUTATIVE): 0.86
- fold change - vehicle control (protein TB427.07.2670 HY[…], CONSERVED): 0.89
- fold change - vehicle control (protein TB427.07.3040 HY[…], CONSERVED): 0.9
- fold change - vehicle control (protein TB427.07.3530 HY[…], CONSERVED): 0.96
- fold change - vehicle control (protein TB427.07.4970 GLUTAMINE SYNTHETASE, PUTATIVE): 0.89
- fold change - vehicle control (protein TB427.07.5560 GLUCOSAMINE-FRUCTOSE-6-PHOSPHATE AMINOTRANSFERASE, PUTATIVE): 0.77
- fold change - vehicle control (protein TB427.07.5890 HY[…], CONSERVED): 0.86
- fold change - vehicle control (protein TB427.07.7070 HY[…], CONSERVED): 0.72
- fold change - vehicle control (protein TB427.07.7460 HY[…], CONSERVED): 0.81
- fold change - vehicle control (protein TB427.08.1500 HY[…], CONSERVED): 0.87
- fold change - vehicle control (protein TB427.08.1840 HY[…], CONSERVED): 1.24
- fold change - vehicle control (protein TB427.08.1960 HY[…], CONSERVED): 0.78
- fold change - vehicle control (protein TB427.08.2080 HY[…], CONSERVED): 0.67
- fold change - vehicle control (protein TB427.08.3750 NUCLEOLAR PROTEIN, PUTATIVE): 0.89
- fold change - vehicle control (protein TB427.08.6390 LYSOPHOSPHOLIPASE, PUTATIVE): 0.97
- fold change - vehicle control (protein TB427.10.10610 PROTEIN TYROSINE PHOSPHATASE, PUTATIVE): 0.62
- fold change - vehicle control (protein TB427.10.1100 60S RIBOSOMAL PROTEIN L9, PUTATIVE): 1.06
- fold change - vehicle control (protein TB427.10.12740): 0.9
- fold change - vehicle control (protein TB427.10.14660 HY[…], CONSERVED): 0.83
- fold change - vehicle control (protein TB427.10.15720 […]-ATP-ASE SUBUNIT 9): 0.9
- fold change - vehicle control (protein TB427.10.2440 METACASPASE MCA4): 0.84
- fold change - vehicle control (protein TB427.10.2900 IMPORTIN BETA-1 SUBUNIT, PUTATIVE): 0.68
- fold change - vehicle control (protein TB427.10.3470 HY[…], CONSERVED): 0.78
- fold change - vehicle control (protein TB427.10.4110 60S RIBOSOMAL PROTEIN L30): 0.82
- fold change - vehicle control (protein TB427.10.4610 […]-MANNOSE SYNTHASE, PUTATIVE): 0.82
- fold change - vehicle control (protein TB427.10.5250 HY[…], CONSERVED): 0.86
- fold change - vehicle control (protein TB427.10.7410 SUCCINYL-COA LIGASE GDP-FORMING] BETA-CHAIN, PUTATIVE): 0.9
- fold change - vehicle control (protein TB927.10.12960 RAS-RELATED PROTEIN RAB-5): 0.82
- fold change - vehicle control (protein TB927.10.14800 PROTEIN KINASE, PUTATIVE): 1.18
- fold change - vehicle control (protein TB927.10.2980 […]-ATPASE SUBUNIT 11): 0.83
- fold change - vehicle control (protein TB927.10.3660 ASPARTATE AMINOTRANSFERASE): 1.14
- fold change - vehicle control (protein TB927.10.4570 […] 2): 0.72
- fold change - vehicle control (protein TB927.10.5140 PROTEIN KINASE, PUTATIVE): 0.83
- fold change - vehicle control (protein TB927.10.560 40S RIBOSOMAL PROTEINS S11, PUTATIVE): 0.94
- fold change - vehicle control (protein TB927.10.6510 CHAPERONIN HSP60, MIT[…]): 0.87
- fold change - vehicle control (protein TB927.3.1840 3-OXO-5-ALPHA-STEROID 4-DEHYDROGENASE, PUTATIVE): 1
- fold change - vehicle control (protein TB927.3.3780 TRYPAREDOXIN): 0.82
- fold change - vehicle control (protein TB927.3.740 HY[…], CONSERVED): 0.83
- fold change - vehicle control (protein TB927.4.2740 HY[…], CONSERVED): 0.74
- fold change - vehicle control (protein TB927.4.3590 T[…] 1-BETA, PUTATIVE): 0.85
- fold change - vehicle control (protein TB927.6.4320 HY[…], CONSERVED): 0.84
- fold change - vehicle control (protein TB927.7.2550 […] SUBUNIT 5): 0.7
- fold change - vehicle control (protein TB927.7.2980 HY[…], CONSERVED): 0.84
- fold change - vehicle control (protein TB927.7.7430 ATP SYNTHASE ALPHA CHAIN, MIT[…]): 0.73
- fold change - vehicle control (protein TB927.8.1990 PEROXIDOXIN): 0.74
- fold change - vehicle control (protein TB927.8.4720 AMINO ACID TRANSPORTER, PUTATIVE): 1.08
- fold change - vehicle control (protein TB927.8.890 SMALL GTP-BINDING PROTEIN RAB1, PUTATIVE): 0.93
